US8435939B2, “Polypeptide anti-HIV agent containing the same” (priority 2000, dated 2013)
Where a SMILES comes first, the peptide text is derived from it. Bridges are numbered along the chain shown (N, C = ends). [ ]: non-standard residue; d: D form. 2Nal = N[C@@H](Cc1ccc2ccccc2c1)C(=O)O; Cit = NC(=O)NCCC[C@H](N)C(=O)O

What was measured:
[1] = Cytotoxicity Test I: virus-uninfected MT-4 cells, MTT method; format: cell-based; conditions: human, MT-4 cells (virus-uninfected); virus-uninfected MT-4 cells, MTT method; read-out: CC50 (Test I), 50% survival concentration
[2] = test system: virus-uninfected MT-4 cells; assay: as above; format: cell-based; conditions: selective index, MT-4 CC50 over anti-HIV EC50
in vitro = in vitro ADME, cat; conditions: serum
Experimental: T140 or TC14012 was dissolved in cat serum (100 μL/100 μL Water) in an amount of 100 nmol, and maintained at 37° C. Each 8 μL of the respective samples were collected after 0 hour, 1 hour, 2 hours, 5 hours and 16 hours, and analyzed by reverse phase HPLC using 16% acetonitrile.

[3] = Cytotoxicity Test II: human PBMC, trypan blue dyeing method; format: cell-based; conditions: human PBMC, trypan blue dyeing method; read-out: CC50 (Test II), 50% survival concentration
[4] = test system: human peripheral blood mononuclear cells (PBMC); assay: as above; format: cell-based; conditions: selective index, PBMC CC50 over anti-HIV EC50

Compound: NCCCC[C@@H]1NC(=O)[C@H](CCCN=C(N)N)NC(=O)[C@H](Cc2ccc(O)cc2)NC(=O)[C@@H](NC(=O)[C@H](Cc2ccc3ccccc3c2)NC(=O)[C@H](CCCN=C(N)N)NC(=O)[C@@H](N)CCCN=C(N)N)CSSC[C@@H](C(=O)N[C@@H](CCCN=C(N)N)C(=O)O)NC(=O)[C@H](CCCNC(N)=O)NC(=O)[C@H](CCCN=C(N)N)NC(=O)[C@H](Cc2ccc(O)cc2)NC(=O)[C@@H]2CCCN2C(=O)[C@@H](CCCCN)NC1=O [Compound T140, H-Arg-Arg-Nal-Cys-Tyr-Arg-Lys-DLys-Pro-Tyr-Arg-Cit-Cys-Arg-OH, reference compound] (H-RR[2Nal]CYRK[dK]PYR[Cit]CR-OH; disulfide 4-13)
- CC50 [1]: > 1 µM
- SI: CC50 (Test I)/EC50 [2]: >>300
- metabolised at 16 h, 0.5 mM (in vitro): ~70%
- CC50 [3]: 96 µM
- SI: CC50 (Test II)/EC50 [4]: 29000
